Measured values as given in patent publication US20210183467A1, “SYSTEM AND METHOD FOR USING MICROBIOME TO DE-RISK DRUG DEVELOPMENT” (YALE UNIVERSITY, priority 2018, published 2021).

What was measured:
[1] = system: human gut microbiome samples; experiment: Combinatorial drug pools incubated with human gut microbiome samples, LC-qTOF MS; assay type: in vitro ADME; settings: for metabolism by the human gut microbiome (log2 fold change in amount of drug): 11 individuals randomly selected from the 60 studied, time span of 24 hours
Source text: Beginning with the 1,760 FDA-approved drugs in the MicroSource Pharmakon library, a single UHPLC-qTOF MS method was optimized (C18 column; methanol:water gradient; positive ionization mode) that maximizes the number of detected drugs while minimizing run time. […] These drugs, whose molecular weights vary from ˜155 to ˜800 Da, span a wide range of clinical indications. Many have limited or highly variable bioavailability. Other criteria (specific chemical groups, bioavailability, etc) may be used to select other reference drugs, or drugs may be selected from pre-clinical compound libraries. A computational simulation was performed to determine the number of inputs (drugs) that can be represented in increasing numbers of pools, as a function of changing parameters for replicates and overlap. One such pooling scheme assigns each of 271 drugs to a subset of 21 pools, such that each drug is placed in 4 pools but shares a pool with each other drug at most twice as shown in FIG. 5B. FIG. 5B illustrates combinatorial pooling of 271 drugs indicated in black circles into 21 pools (A-U). Pools V-X are no-drug controls. Other pooling schemes may alter the number of drugs, the number of pools, the number of pools each drug is placed in, or the overlap between the pooling patterns of each drug. […] Each of these pools was incubated with each of 60 human gut microbiome samples and 76 defined bacterial species/strains. Samples were collected over time. Liquid chromatography-coupled quadrupole time-of-flight mass spectrometry (MS) described above was used to quantify drug levels by targeted analysis. For each candidate drug-microbiome interaction, 4 pools provide quadruplicate replication for each drug in 4 distinct contexts of other drugs. The other pools serve as negative controls. In this manner, over 16,000 time-series profiles (271 drugs by 60 communities) were collected, each in quadruplicate, from only 21 drug pools.

[2] = patients taking 5-fluorouracil; before withdrawal from the market; cited from earlier work
BT4554 = experiment: B. thetaiotaomicron loss-of-function screen, bt4554 deletion and complementation; assay type: in vitro ADME, Bacteroides thetaiotaomicron; settings: BT4554 dependence
Source text: Two independent strategies were developed to identify the microbiome-encoded DMEs responsible for these chemical transformations. For members of the Bacteroides (the most prominent genus in the human gut microbiome in the experiments), Proteobacteria, and other genetically tractable species, Insertion Sequencing (INSeq) is used to make mapped, arrayed transposon mutant libraries as described in Goodman 2009 and Goodman 2011. From these libraries, a representative set of mutants was identified that collectively include disruptions in most non-essential genes. Each mutant was incubated with the pool of drugs metabolized by the parent species. Genes required for drug metabolism by LC-MS were identified as above.
1,352 B. thetaiotaomicron mutants were selected from an arrayed library as described in Goodman 2009 that disrupt ˜70% of its non-essential genes. Each mutant was incubated with a pool of 30 drugs metabolized by this organism. Drug levels were measured over time as above. […] FIGS. 10A-C show two examples: one of these is brivudine, an antiviral whose primary metabolite (bromovinyluracil; BVU) is dangerously toxic for patients taking 5-fluorouracil, a principal therapy for colorectal cancer. With reference to FIGS. 10A-C, transposon mutants representing disruptions in 70% of B. thetaiotaomicron (Bt) non-essential genes were screened for metabolism of 30 drugs targeted by the parent strain.
The contribution of microbial drug metabolism to serum drug and metabolite exposure was directly quantified by specifically modulating this activity in otherwise identical mice. To this end, the capacity of ten individual bacterial species was first determined, representing five major phyla that dominate the mammalian gut microbiota, for their capacity to convert BRV to BVU as illustrated in FIG. 14A. […]
Frozen stocks are re-suspended in 4 mL pre-reduced GMM and incubated anaerobically at 37° C. for 14 h. […] Substrates and reaction product are extracted and quantified by LC-MS as described below. […]

[3] = Liver S9 enzyme assay of conversion to BVU; assay type: in vitro ADME
Procedure: Human and murine S9 liver fractions are purchased from Thermo Fisher Scientific (HMS9L and MSMCPL, respectively). Enzyme assays are performed for the deglycosylation of arabinosyluracil derivatives. In brief, assays are performed at 37° C. Reaction volumes are 150 μL with liver S9 fractions at 5 μg/μL and BRV or SRV at 100 μM in 10 mM phosphate buffer (pH 7.4). Reactions are initiated by addition of drugs to pre-warmed reaction mixture. 10 μL samples are collected and quenched in 10 μL acetonitrile on ice at 0, 5, 10, 15, 20, 30, 45, 60, 90, 120, 180, 270, and 360 min after initiation. Substrates and reaction product are extracted and quantified by LC-MS as described below.

[4] = system: 76 defined human gut commensals; assay type: in vitro ADME
Procedure: Using the combinatorial pooling method described above, each of the 21 drug pools was incubated, plus 3 no-drug control pools, with 76 defined human gut commensals from phyla shown in FIG. 8 grown in pure culture. Over 20,000 time-series profiles were collected, each in quadruplicate, of these specific drug-microbe interactions.

Cc1nc2n(c(=O)c1CCN1CCC(c3noc4cc(F)ccc34)CC1)CCCC2 [risperidone]
metabolism by the human gut microbiome (log2 fold change in amount of drug) [1]: metabolized by the human gut microbiome

COc1ccc(/C=C/C(=O)Nc2ccccc2C(=O)O)cc1OC [tranilast]
interpersonal variability of metabolism by gut microbiome [1]: one individual that metabolized the drug to a much greater extent than the others
metabolism by the human gut microbiome (log2 fold change in amount of drug) [1]: metabolized by the human gut microbiome

CC(=O)OCC(CCn1cnc2cnc(N)nc21)COC(C)=O [Famcyclovir]
metabolism by the human gut microbiome (log2 fold change in amount of drug) [1]: metabolized by the human gut microbiome

O=c1[nH]c(=O)n([C@@H]2O[C@H](CO)[C@@H](O)[C@@H]2O)cc1/C=C/Br [SRV, sorivudine]
patients killed by BVU from the drug [2]: 18 patients
conversion of SRV to BVU by B. thetaiotaomicron (BT4554): slowly converts SRV to BVU in a BT4554-dependent manner
conversion of SRV to BVU ([3]; human S9 liver fractions): slowly converted
conversion of SRV to BVU ([3]; murine S9 liver fractions): slowly converted

CC(=O)OCC(=O)[C@@]12N=C(C)O[C@@H]1C[C@H]1[C@@H]3CCC4=CC(=O)C=C[C@]4(C)[C@H]3[C@@H](O)C[C@@]12C [deflazacort]
metabolism by individual species [4]: most of the fast metabolizers of this drug are Bacteroides
